Earlier results as cited in patent US20050214389A1, “Beta-carotene enriched extract from water hyacinth eichhornia crassipes” (Council of Scientific and Industrial Research, priority 2004, published 2005).

Tests used:
polyamine oxidase = conditions: for inhibition of the enzyme: purified polyamine oxidase from leaves of water hyacinth; for Km: substrate of purified polyamine oxidase from leaves of water hyacinth
Enterobacter sp. F2 = conditions: concentrations of from 10-7 to 10-2 mol/L

Compound | chemotaxis (attraction of F2) (Enterobacter sp. F2) | also measured
NCCCCCCCCN [Octamethylenediamine] | – | inhibition of the enzyme (polyamine oxidase): strong inhibitors
C[C@H](N)C(=O)O [alanine] | strongly attracted | –
N=C(N)NCCC[C@H](N)C(=O)O [arginine] | not | –
NC(=O)C[C@H](N)C(=O)O [asparagine] | not | –
N[C@@H](CS)C(=O)O [cysteine] | not | –
NCCCC(=O)O [gamma amino butyric acid] | strongly attracted | –
N[C@@H](CCC(=O)O)C(=O)O [glutamate] | some degrees | –
NC(=O)CC[C@H](N)C(=O)O [glutamine] | not | –
NCC(=O)O [glycine] | strongly attracted | –
N[C@@H](Cc1c[nH]cn1)C(=O)O [histidine] | some degrees | –
CC[C@H](C)[C@H](N)C(=O)O [isoleucine] | not | –
CC(C)C[C@H](N)C(=O)O [leucine] | strongly attracted | –
NCCCC[C@H](N)C(=O)O [lysine] | not | –
CSCC[C@H](N)C(=O)O [methionine] | strongly attracted | –
O=C(O)c1cc[c]([Hg][Cl])cc1 [p-chloromercuribenzoate] | – | inhibition of the enzyme (polyamine oxidase): without effect
N[C@@H](Cc1ccccc1)C(=O)O [phenylalanine] | not | –
O=C(O)[C@@H]1CCCN1 [proline] | not | –
CCN(CC)CCCC(C)Nc1c2ccc(Cl)cc2nc2ccc(OC)cc12 (stereo not shown) [quinacrine] | – | inhibition of the enzyme (polyamine oxidase): strong inhibitors
N[C@@H](CO)C(=O)O [serine] | strongly attracted | –
NCCCCNCCCN [spermidine] | – | Km (polyamine oxidase): 28 mM
NCCCNCCCCNCCCN [spermine] | – | Km (polyamine oxidase): 20 mM
C[C@@H](O)[C@H](N)C(=O)O [threonine] | some degrees | –
N[C@@H](Cc1c[nH]c2ccccc12)C(=O)O [tryptophan] | not | –
N[C@@H](Cc1ccc(O)cc1)C(=O)O [tyrosine] | not | –
CC(C)[C@H](N)C(=O)O [valine] | strongly attracted | –
